# Reference: PMC7345083, “Vancomycin-Lipopeptide Conjugates with High Antimicrobial Activity on Vancomycin-Resistant Enterococci” (Pharmaceuticals, 2020)
# System: Enterococcus faecium UL602570 (vanA, clinical isolate)
# Type: cell-based
# Details: UL602570 (vanA, clinical isolate, 18 h)
# Experimental: The minimum inhibitory concentration (MIC) was determined by microdilution following the EUCAST and CLSI guidelines via the broth microdilution assay on a 96-well plate. Substances were dissolved in saline solution (0.9%) at a concentration equimolar to 1.28 mg/mL vancomycin. With an increasing hydrophobicity, some substances had to be pre-dissolved in DMSO. The final concentration of DMSO remained below 1.5% and was compared to the DMSO control (no antimicrobial effect was observed up to the highest concentration tested (10%)). All substances were serially diluted on the 96-well plate using Mueller-Hinton-Broth II (cation adjusted). Vancomycin was always used as a control. For bacterial loading, an overnight culture of the referring strain was taken and adjusted to a turbidity corresponding to 10^8 cfu/mL. The bacterial suspension was further diluted to load a bacterial number of 10^6 cfu/mL on the 96-well plate and incubate it for 18 h at 35 ± 1 °C, as described before. MIC was defined as the lowest concentration without visible growth.
MIC median [µg/mL],MIC range [µg/mL],SMILES
4.35,4.35 to 8.69,CN[C@H](CC(C)C)C(=O)N[C@H]1C(=O)N[C@@H](CC(N)=O)C(=O)N[C@H]2C(=O)N[C@H]3C(=O)N[C@H](C(=O)N[C@H](C(=O)O)c4cc(O)cc(O)c4-c4cc3ccc4O)[C@H](O)c3ccc(c(Cl)c3)Oc3cc2cc(c3O[C@@H]2O[C@H](CO)[C@@H](O)[C@H](O)[C@H]2O[C@H]2C[C@](C)(NCCNC(=O)C3CCC(CN4C(=O)CC(SC[C@H](NC(=O)[C@H](CCCNC(=N)N)NC(=O)[C@H](CCCNC(=N)N)NC(=O)[C@@H](N)CCCNC(=N)N)C(N)=O)C4=O)CC3)[C@H](O)[C@H](C)O2)Oc2ccc(cc2Cl)[C@H]1O (stereo partly shown) [VV-R3C]
72.00,36.00 to 72.00,CCCCCC(=O)N[C@@H](CCCNC(=N)N)C(=O)N[C@@H](CCCNC(=N)N)C(=O)N[C@@H](CCCNC(=N)N)C(=O)N[C@@H](CSC1CC(=O)N(CC2CCC(C(=O)N(C)[C@H](CC(C)C)C(=O)N[C@H]3C(=O)N[C@@H](CC(N)=O)C(=O)N[C@H]4C(=O)N[C@H]5C(=O)N[C@H](C(=O)N[C@H](C(=O)O)c6cc(O)cc(O)c6-c6cc5ccc6O)[C@H](O)c5ccc(c(Cl)c5)Oc5cc4cc(c5O[C@@H]4O[C@H](CO)[C@@H](O)[C@H](O)[C@H]4O[C@H]4C[C@](C)(N)[C@H](O)[C@H](C)O4)Oc4ccc(cc4Cl)[C@H]3O)CC2)C1=O)C(N)=O (stereo partly shown) [VN-R3C-C6]
4.63,2.31 to 9.25,CCCCCC(=O)N[C@@H](CCCNC(=N)N)C(=O)N[C@@H](CCCNC(=N)N)C(=O)N[C@@H](CCCNC(=N)N)C(=O)N[C@@H](CSC1CC(=O)N(CC2CCC(C(=O)NCCN[C@@]3(C)C[C@H](O[C@H]4[C@H](Oc5c6cc7cc5Oc5ccc(cc5Cl)[C@@H](O)[C@@H](NC(=O)[C@@H](CC(C)C)NC)C(=O)N[C@@H](CC(N)=O)C(=O)N[C@H]7C(=O)N[C@H]5C(=O)N[C@H](C(=O)N[C@H](C(=O)O)c7cc(O)cc(O)c7-c7cc5ccc7O)[C@H](O)c5ccc(c(Cl)c5)O6)O[C@H](CO)[C@@H](O)[C@@H]4O)O[C@@H](C)[C@H]3O)CC2)C1=O)C(N)=O (stereo partly shown) [VV-R3C-C6]
18.31,9.16 to 18.31,CCCCCCCC(=O)N[C@@H](CCCNC(=N)N)C(=O)N[C@@H](CCCNC(=N)N)C(=O)N[C@@H](CCCNC(=N)N)C(=O)N[C@@H](CSC1CC(=O)N(CC2CCC(C(=O)N(C)[C@H](CC(C)C)C(=O)N[C@H]3C(=O)N[C@@H](CC(N)=O)C(=O)N[C@H]4C(=O)N[C@H]5C(=O)N[C@H](C(=O)N[C@H](C(=O)O)c6cc(O)cc(O)c6-c6cc5ccc6O)[C@H](O)c5ccc(c(Cl)c5)Oc5cc4cc(c5O[C@@H]4O[C@H](CO)[C@@H](O)[C@H](O)[C@H]4O[C@H]4C[C@](C)(N)[C@H](O)[C@H](C)O4)Oc4ccc(cc4Cl)[C@H]3O)CC2)C1=O)C(N)=O (stereo partly shown) [VN-R3C-C8]
67.75,32.00 to 67.75,CC(C)C[C@H](C(=O)N[C@H]1C(=O)N[C@@H](CC(N)=O)C(=O)N[C@H]2C(=O)N[C@H]3C(=O)N[C@H](C(=O)N[C@H](C(=O)O)c4cc(O)cc(O)c4-c4cc3ccc4O)[C@H](O)c3ccc(c(Cl)c3)Oc3cc2cc(c3O[C@@H]2O[C@H](CO)[C@@H](O)[C@H](O)[C@H]2O[C@H]2C[C@](C)(N)[C@H](O)[C@H](C)O2)Oc2ccc(cc2Cl)[C@H]1O)N(C)C(=O)C1CCC(CN2C(=O)CC(SC[C@H](NC(=O)[C@H](CCCNC(=N)N)NC(=O)[C@H](CCCNC(=N)N)NC(=O)[C@@H](N)CCCNC(=N)N)C(N)=O)C2=O)CC1 (stereo partly shown) [VN-R3C]
106.00,,CCCCCC(=O)N[C@@H](CCCNC(=N)N)C(=O)N[C@@H](CCCNC(=N)N)C(=O)N[C@@H](CCCNC(=N)N)C(=O)N[C@@H](CSC1CC(=O)N(CC2CCC(C(=O)NCCNC(=O)[C@H]3NC(=O)[C@H]4NC(=O)[C@H](NC(=O)[C@@H]5NC(=O)[C@H](CC(N)=O)NC(=O)[C@H](NC(=O)[C@@H](CC(C)C)NC)[C@H](O)c6ccc(c(Cl)c6)Oc6cc5cc(c6O[C@@H]5O[C@H](CO)[C@@H](O)[C@H](O)[C@H]5O[C@H]5C[C@](C)(N)[C@H](O)[C@H](C)O5)Oc5ccc(cc5Cl)[C@H]4O)c4ccc(O)c(c4)-c4c(O)cc(O)cc43)CC2)C1=O)C(N)=O (stereo partly shown) [VC-R3C-C6]

# More lines, now with the values behind:
SMILES,MIC median [µg/mL],MIC range [µg/mL]
CCCCCCCCCCCCCCCC(=O)N[C@@H](CCCNC(=N)N)C(=O)N[C@@H](CCCNC(=N)N)C(=O)N[C@@H](CCCNC(=N)N)C(=O)N[C@@H](CSC1CC(=O)N(CC2CCC(C(=O)NCCN[C@@]3(C)C[C@H](O[C@H]4[C@H](Oc5c6cc7cc5Oc5ccc(cc5Cl)[C@@H](O)[C@@H](NC(=O)[C@@H](CC(C)C)NC)C(=O)N[C@@H](CC(N)=O)C(=O)N[C@H]7C(=O)N[C@H]5C(=O)N[C@H](C(=O)N[C@H](C(=O)O)c7cc(O)cc(O)c7-c7cc5ccc7O)[C@H](O)c5ccc(c(Cl)c5)O6)O[C@H](CO)[C@@H](O)[C@@H]4O)O[C@@H](C)[C@H]3O)CC2)C1=O)C(N)=O (stereo partly shown) [VV-R3C-C16],2.50,2.50 to 3.50
CCCCCCCCCCCCCCCCCC(=O)N[C@@H](CCCNC(=N)N)C(=O)N[C@@H](CCCNC(=N)N)C(=O)N[C@@H](CCCNC(=N)N)C(=O)N[C@@H](CSC1CC(=O)N(CC2CCC(C(=O)N(C)[C@H](CC(C)C)C(=O)N[C@H]3C(=O)N[C@@H](CC(N)=O)C(=O)N[C@H]4C(=O)N[C@H]5C(=O)N[C@H](C(=O)N[C@H](C(=O)O)c6cc(O)cc(O)c6-c6cc5ccc6O)[C@H](O)c5ccc(c(Cl)c5)Oc5cc4cc(c5O[C@@H]4O[C@H](CO)[C@@H](O)[C@H](O)[C@H]4O[C@H]4C[C@](C)(N)[C@H](O)[C@H](C)O4)Oc4ccc(cc4Cl)[C@H]3O)CC2)C1=O)C(N)=O (stereo partly shown) [VN-R3C-C18],4.97,2.48 to 4.97
CCCCCCCCCCCCCC(=O)N[C@@H](CCCNC(=N)N)C(=O)N[C@@H](CCCNC(=N)N)C(=O)N[C@@H](CCCNC(=N)N)C(=O)N[C@@H](CSC1CC(=O)N(CC2CCC(C(=O)N(C)[C@H](CC(C)C)C(=O)N[C@H]3C(=O)N[C@@H](CC(N)=O)C(=O)N[C@H]4C(=O)N[C@H]5C(=O)N[C@H](C(=O)N[C@H](C(=O)O)c6cc(O)cc(O)c6-c6cc5ccc6O)[C@H](O)c5ccc(c(Cl)c5)Oc5cc4cc(c5O[C@@H]4O[C@H](CO)[C@@H](O)[C@H](O)[C@H]4O[C@H]4C[C@](C)(N)[C@H](O)[C@H](C)O4)Oc4ccc(cc4Cl)[C@H]3O)CC2)C1=O)C(N)=O (stereo partly shown) [VN-R3C-C14],2.41,2.41 to 4.81
CCCCCCCC(=O)N[C@@H](CCCNC(=N)N)C(=O)N[C@@H](CCCNC(=N)N)C(=O)N[C@@H](CCCNC(=N)N)C(=O)N[C@@H](CSC1CC(=O)N(CC2CCC(C(=O)NCCNC(=O)[C@H]3NC(=O)[C@H]4NC(=O)[C@H](NC(=O)[C@@H]5NC(=O)[C@H](CC(N)=O)NC(=O)[C@H](NC(=O)[C@@H](CC(C)C)NC)[C@H](O)c6ccc(c(Cl)c6)Oc6cc5cc(c6O[C@@H]5O[C@H](CO)[C@@H](O)[C@H](O)[C@H]5O[C@H]5C[C@](C)(N)[C@H](O)[C@H](C)O5)Oc5ccc(cc5Cl)[C@H]4O)c4ccc(O)c(c4)-c4c(O)cc(O)cc43)CC2)C1=O)C(N)=O (stereo partly shown) [VC-R3C-C8],9.54,9.54 to 19.08
CCCCCCCCCCCCCC(=O)N[C@@H](CCCNC(=N)N)C(=O)N[C@@H](CCCNC(=N)N)C(=O)N[C@@H](CCCNC(=N)N)C(=O)N[C@@H](CSC1CC(=O)N(CC2CCC(C(=O)NCCNC(=O)[C@H]3NC(=O)[C@H]4NC(=O)[C@H](NC(=O)[C@@H]5NC(=O)[C@H](CC(N)=O)NC(=O)[C@H](NC(=O)[C@@H](CC(C)C)NC)[C@H](O)c6ccc(c(Cl)c6)Oc6cc5cc(c6O[C@@H]5O[C@H](CO)[C@@H](O)[C@H](O)[C@H]5O[C@H]5C[C@](C)(N)[C@H](O)[C@H](C)O5)Oc5ccc(cc5Cl)[C@H]4O)c4ccc(O)c(c4)-c4c(O)cc(O)cc43)CC2)C1=O)C(N)=O (stereo partly shown) [VC-R3C-C14],2.45,2.45 to 4.91
CCCCCCCCCC(=O)N[C@@H](CCCNC(=N)N)C(=O)N[C@@H](CCCNC(=N)N)C(=O)N[C@@H](CCCNC(=N)N)C(=O)N[C@@H](CSC1CC(=O)N(CC2CCC(C(=O)NCCNC(=O)[C@H]3NC(=O)[C@H]4NC(=O)[C@H](NC(=O)[C@@H]5NC(=O)[C@H](CC(N)=O)NC(=O)[C@H](NC(=O)[C@@H](CC(C)C)NC)[C@H](O)c6ccc(c(Cl)c6)Oc6cc5cc(c6O[C@@H]5O[C@H](CO)[C@@H](O)[C@H](O)[C@H]5O[C@H]5C[C@](C)(N)[C@H](O)[C@H](C)O5)Oc5ccc(cc5Cl)[C@H]4O)c4ccc(O)c(c4)-c4c(O)cc(O)cc43)CC2)C1=O)C(N)=O (stereo partly shown) [VC-R3C-C10],4.77,4.77 to 9.53
CCCCCCCCCCCCCC(=O)N[C@@H](CCCNC(=N)N)C(=O)N[C@@H](CCCNC(=N)N)C(=O)N[C@@H](CCCNC(=N)N)C(=O)N[C@@H](CSC1CC(=O)N(CC2CCC(C(=O)NCCN[C@@]3(C)C[C@H](O[C@H]4[C@H](Oc5c6cc7cc5Oc5ccc(cc5Cl)[C@@H](O)[C@@H](NC(=O)[C@@H](CC(C)C)NC)C(=O)N[C@@H](CC(N)=O)C(=O)N[C@H]7C(=O)N[C@H]5C(=O)N[C@H](C(=O)N[C@H](C(=O)O)c7cc(O)cc(O)c7-c7cc5ccc7O)[C@H](O)c5ccc(c(Cl)c5)O6)O[C@H](CO)[C@@H](O)[C@@H]4O)O[C@@H](C)[C@H]3O)CC2)C1=O)C(N)=O (stereo partly shown) [VV-R3C-C14],0.46,0.31 to 0.62
